Each molecule was assayed against GluA1o-γ8 (GRIA1o-CACNG8 fusion construct) (Homo sapiens (Human), UniProt P42261+Q8WXS5) (assay: Calcium flux assay (FLIPR), inhibition of TARP γ8 dependent AMPA receptor activity). Details: GluA1o-γ8 (GRIA1o-CACNG8 fusion) in HEK293 cells, calcium flux after 15 μM glutamate.
Assay type: cell-based
Outline: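 HEK293 cells stably expressing a 1:1 GRIA1o–CACNG8 fusion were loaded with Calcium-5/6 dye plus compound in pH 7.4 HEPES-buffered saline. FLIPR calcium flux after 15 μM glutamate was normalized to untreated and 10 μM CP465022 controls, and a four-parameter logistic fit gave pIC50.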

GluA1o-γ8 (GRIA1o-CACNG8 fusion construct), sequence (P42261 other isoform, or with tags, fused parts or gaps): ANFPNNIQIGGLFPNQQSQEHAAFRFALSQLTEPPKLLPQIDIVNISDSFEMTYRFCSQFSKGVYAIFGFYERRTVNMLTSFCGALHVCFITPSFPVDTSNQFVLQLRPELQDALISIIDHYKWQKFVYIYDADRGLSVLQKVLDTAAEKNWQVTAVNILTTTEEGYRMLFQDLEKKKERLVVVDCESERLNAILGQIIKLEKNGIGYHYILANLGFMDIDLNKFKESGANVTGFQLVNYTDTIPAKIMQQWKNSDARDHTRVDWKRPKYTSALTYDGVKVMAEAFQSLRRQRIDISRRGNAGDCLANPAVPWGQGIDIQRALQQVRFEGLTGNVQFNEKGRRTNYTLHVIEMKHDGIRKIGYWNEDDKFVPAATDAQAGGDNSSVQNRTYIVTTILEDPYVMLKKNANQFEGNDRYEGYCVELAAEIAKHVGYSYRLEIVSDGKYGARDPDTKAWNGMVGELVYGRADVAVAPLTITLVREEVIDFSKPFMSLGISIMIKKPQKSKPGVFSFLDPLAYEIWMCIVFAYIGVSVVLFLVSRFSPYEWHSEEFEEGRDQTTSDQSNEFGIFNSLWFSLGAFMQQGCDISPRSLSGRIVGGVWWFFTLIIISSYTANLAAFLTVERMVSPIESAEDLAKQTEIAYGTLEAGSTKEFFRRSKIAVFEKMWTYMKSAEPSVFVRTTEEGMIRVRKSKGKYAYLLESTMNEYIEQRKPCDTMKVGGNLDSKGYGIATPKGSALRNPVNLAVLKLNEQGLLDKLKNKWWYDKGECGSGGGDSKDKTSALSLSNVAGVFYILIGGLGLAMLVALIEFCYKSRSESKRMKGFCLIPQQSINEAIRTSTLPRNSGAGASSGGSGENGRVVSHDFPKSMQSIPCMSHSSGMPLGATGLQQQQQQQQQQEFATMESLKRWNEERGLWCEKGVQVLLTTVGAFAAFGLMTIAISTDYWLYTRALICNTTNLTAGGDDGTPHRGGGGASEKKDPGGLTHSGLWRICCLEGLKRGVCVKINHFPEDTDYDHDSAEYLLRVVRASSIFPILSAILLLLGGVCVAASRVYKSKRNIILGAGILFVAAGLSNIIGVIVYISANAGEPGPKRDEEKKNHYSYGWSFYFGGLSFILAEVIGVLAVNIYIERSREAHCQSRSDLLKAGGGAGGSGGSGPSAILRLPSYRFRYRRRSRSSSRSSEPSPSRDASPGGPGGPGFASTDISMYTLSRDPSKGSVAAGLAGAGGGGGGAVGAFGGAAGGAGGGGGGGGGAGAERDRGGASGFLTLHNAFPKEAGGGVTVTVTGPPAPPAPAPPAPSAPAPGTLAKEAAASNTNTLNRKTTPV

| IC50 [nM] | Structure (SMILES) |
| --- | --- |
| 0.0631 | O=C1Cc2cc(-n3c(C4CC4)c(Br)c4ccc(C(F)(F)F)nc43)ccc2N1 [Example 389, 5-[3-Bromo-2-cyclopropyl-6-(trifluoromethyl)pyrrolo[2,3-b]pyridin-1-yl]indolin-2-one] |
| 0.631 | CC(C)c1cc2ccc(C(F)(F)F)nc2n1-c1cnc2[nH]ccc2c1 [Example 391, 2-Isopropyl-1-(1H-pyrrolo[2,3-b]pyridin-5-yl)-6-(trifluoromethyl)pyrrolo[2,3-b]pyridine] |
| 3.16 | Cc1ccc2c(Br)c(-c3ccccc3)n(-c3cnc4c(c3)CC(=O)N4)c2n1 [Example 393, 5-(3-Bromo-6-methyl-2-phenyl-pyrrolo[2,3-b]pyridin-1-yl)-1,3-dihydropyrrolo[2,3-b]pyridin-2-one] |
| 0.0126 | CC(C)c1cc2ccc(C(F)(F)F)nc2n1-c1ccc2c(c1)CC(=O)N2 [Example 396, 5-[2-Isopropyl-6-(trifluoromethyl)pyrrolo[2,3-b]pyridin-1-yl]indolin-2-one] |
| 0.0251 | O=C1Cc2cc(-n3c(C4CC4)cc4ccc(C(F)(F)F)nc43)ccc2N1 [Example 399, 5-[2-Cyclopropyl-6-(trifluoromethyl)pyrrolo[2,3-b]pyridin-1-yl]indolin-2-one] |
| 0.251 | Cc1ccc2cc(-c3ccccc3)n(-c3cnc4c(c3)CC(=O)N4)c2n1 [Example 400, 5-(6-Methyl-2-phenyl-pyrrolo[2,3-b]pyridin-1-yl)-1,3-dihydropyrrolo[2,3-b]pyridin-2-one] |
| 0.0316 | CC(C)c1cc2ccc(C(F)(F)F)nc2n1-c1cnc2c(c1)CC(=O)N2 [Example 401, 5-[2-Isopropyl-6-(trifluoromethyl)pyrrolo[2,3-b]pyridin-1-yl]-1,3-dihydropyrrolo[2,3-b]pyridin-2-one] |
| 1.26 | CCc1cc2cccnc2n1-c1cc(C)c2c(c1)CC(=O)N2 [Example 403, 5-(2-Ethylpyrrolo[2,3-b]pyridin-1-yl)-7-methyl-indolin-2-one] |
| 1.26 | Cc1ccc2nc(C(C)(F)F)n(-c3cc(Cl)c4[nH]ncc4c3)c2n1 [Example 410, 3-(7-Chloro-1H-indazol-5-yl)-2-(1,1-difluoroethyl)-5-methyl-3H-imidazo[4,5-b]pyridine] |
| 0.398 | COCc1nc2ccc(C(F)(F)F)nc2n1-c1cc(Cl)c2[nH]ncc2c1 [Example 413, 3-(7-Chloro-1H-indazol-5-yl)-2-(methoxymethyl)-5-(trifluoromethyl)-3H-imidazo[4,5-b]pyridine] |
| 0.126 | CC(C)Cc1nc2ccc(C(F)(F)F)nc2n1-c1cc(Cl)c2[nH]ncc2c1 [Example 414, 3-(7-Chloro-1H-indazol-5-yl)-2-isobutyl-5-(trifluoromethyl)-3H-imidazo[4,5-b]pyridine] |
| 0.501 | FC(F)(F)Cc1nc2ccc(C(F)(F)F)nc2n1-c1cc(Cl)c2[nH]ncc2c1 [Example 416, 3-(7-Chloro-1H-indazol-5-yl)-2-(2,2,2-trifluoroethyl)-5-(trifluoromethyl)-3H-imidazo[4,5-b]pyridine] |
| 3.16 | CCC(F)(F)c1nc2ccc(C(F)(F)F)nc2n1-c1cc(C)c2[nH]ncc2c1 [Example 417, 2-(1,1-Difluoropropyl)-3-(7-methyl-1H-indazol-5-yl)-5-(trifluoromethyl)-3H-imidazo[4,5-b]pyridine] |
| 3.98 | Cc1cc(-n2c(CCC(F)(F)F)nc3ccc(C(F)(F)F)nc32)cc2cn[nH]c12 [Example 418, 3-(7-Methyl-1H-indazol-5-yl)-5-(trifluoromethyl)-2-(3,3,3-trifluoropropyl)-3H-imidazo[4,5-b]pyridine] |

Continued, molecule first:

| Structure (SMILES) | IC50 [nM] |
| --- | --- |
| FC(F)(F)c1ccc2cc(-c3ccccc3)n(-c3ccc4[nH]ccc4c3)c2n1 [Example 388, 1-(1H-Indol-5-yl)-2-phenyl-6-(trifluoromethyl)pyrrolo[2,3-b]pyridine] | 7.94 |
| Cc1ccc2cc(-c3ccccc3)n(-c3cnc4[nH]ccc4c3)c2n1 [Example 390, 6-Methyl-2-phenyl-1-(1H-pyrrolo[2,3-b]pyridin-5-yl)pyrrolo[2,3-b]pyridine] | 1.26 |
| CC(C)c1c(Br)c2ccc(C(F)(F)F)nc2n1-c1cnc2c(c1)CC(=O)N2 [Example 394, 5-[3-Bromo-2-isopropyl-6-(trifluoromethyl)pyrrolo[2,3-b]pyridin-1-yl]-1,3-dihydropyrrolo[2,3-b]pyridin-2-one] | 31.6 |
| Cc1c(Br)c2ccc(C(F)(F)F)nc2n1-c1cnc2c(c1)CC(=O)N2 [Example 395, 5-[3-Bromo-2-methyl-6-(trifluoromethyl)pyrrolo[2,3-b]pyridin-1-yl]-1,3-dihydropyrrolo[2,3-b]pyridin-2-one] | 25.1 |
| O=C1Cc2cc(-n3c(-c4ccccc4)cc4ccc(C(F)(F)F)nc43)ccc2N1 [Example 397, 5-[2-Phenyl-6-(trifluoromethyl)pyrrolo[2,3-b]pyridin-1-yl]indolin-2-one] | 0.0398 |
| O=C1Cc2cc(-n3c(-c4ccc(F)cc4)cc4ccc(C(F)(F)F)nc43)ccc2N1 [Example 398, 5-[2-(4-Fluorophenyl)-6-(trifluoromethyl)pyrrolo[2,3-b]pyridin-1-yl]indolin-2-one] | 0.0631 |
| Cc1cc2ccc(C(F)(F)F)nc2n1-c1cnc2c(c1)CC(=O)N2 [Example 402, 5-[2-Methyl-6-(trifluoromethyl)pyrrolo[2,3-b]pyridin-1-yl]-1,3-dihydropyrrolo[2,3-b]pyridin-2-one] | 10 |
| FC(F)(F)c1ccc2nc(CC3CC3)n(-c3cc(Cl)c4[nH]ncc4c3)c2n1 [Example 411, 3-(7-Chloro-1H-indazol-5-yl)-2-(cyclopropylmethyl)-5-(trifluoromethyl)-3H-imidazo[4,5-b]pyridine] | 0.158 |
| CCCc1nc2ccc(C(F)(F)F)nc2n1-c1cc(Cl)c2[nH]ncc2c1 [Example 412, 3-(7-Chloro-1H-indazol-5-yl)-2-propyl-5-(trifluoromethyl)-3H-imidazo[4,5-b]pyridine] | 0.126 |
| COc1ccc2nc(C(F)(F)F)n(-c3cc(Cl)c4[nH]ncc4c3)c2n1 [Example 415, 3-(7-Chloro-1H-indazol-5-yl)-5-methoxy-2-(trifluoromethyl)-3H-imidazo[4,5-b]pyridine] | 0.0501 |
| FC(F)(F)c1cnc2c(c1)nc(C(F)(F)F)n2-c1cc(Cl)c2[nH]ncc2c1 [Example 419, 3-(7-Chloro-1H-indazol-5-yl)-2,6-bis(trifluoromethyl)-3H-imidazo[4,5-b]pyridine] | 0.631 |
| Cc1cc(-n2c(C(C)C)cc3cc(F)cnc32)cc2c1NC(=O)C2 [Example 420, 5-(5-Fluoro-2-isopropyl-1H-pyrrolo[2,3-b]pyridin-1-yl)-7-methylindolin-2-one] | 0.126 |
| Cc1cc(-n2c(C)cc3ccc(C(F)F)nc32)cc2c1NC(=O)C2 [Example 421, 5-(6-(Difluoromethyl)-2-methyl-1H-pyrrolo[2,3-b]pyridin-1-yl)-7-methylindolin-2-one] | 0.0794 |
| Cc1cc(-n2c(C=O)cc3ccc(C(F)(F)F)nc32)cc2c1NC(=O)C2 [Example 422, 1-(7-Methyl-2-oxoindolin-5-yl)-6-(trifluoromethyl)-1H-pyrrolo[2,3-b]pyridine-2-carbaldehyde] | 0.316 |

— US11312712B2, “Azabenzimidazoles and their use as AMPA receptor modulators” (Janssen Pharmaceutica NV, priority 2015, dated 2022)
